From US20250312320A1, “METHOD AND TREATMENT FOR OSTEOARTHRITIS AND DISEASES OF CHONDROCYTE HYPERTROPHY” (The Royal Veterinary College, priority 2022, published 2025)

System: ATDC5 micromasses
Assay: RNA sequencing of BI1347 treated ATDC5 micromasses
Assay type: cell-based, mouse
Settings: 1 μM vs DMSO
Protocol: 2.7×10^5 ATDC5 cells were seeded in a 10 μl micromasses and differentiated in the presence of 1 μM BI1347 or DMSO control for 7 days before RNA extraction as previously described. Two wells were pooled per extraction and treatment conditions were set up in triplicate.
Total RNA quantification and integrity was determined via Bioanalyzer 2100 (Agilent) and RNA samples with an integrity number above 9.0 were processed for RNA sequencing.
The RNA library was formed by polyA capture using poly-T oligo attached magnetic beads and subsequently reverse transcribed for cDNA synthesis and library construction. The library was then sequenced using the Illumina PE150 technology and clean reads with high quality data were taken forward for downstream analysis. Paired-end clean reads were aligned to the Mus Musculus reference genome and reads numbers mapped to each gene. Fragments Per Kilobase of transcript sequence per Millions base pairs sequenced (FPKM) of each gene was calculated based on the length of the gene and reads count mapped to the gene.
Differential expression analysis of BI1347 treatment versus DMSO control was performed. Genes with an adjusted P-value≤0.05 and a fold change≥2 were considered differentially expressed.
Cluster analysis was carried out on all the differentially expressed genes in each group and biological replicate using hierarchical clustering to cluster the FPKM values of genes.
Genes of interest relating to chondrocyte hypertrophy and cartilage homeostasis were identified.

For `CN(C)C(=O)Cn1cc(-c2ccc(-c3cncc4ccccc34)cc2)cn1` [BI1347], the “enrichment of downregulated biological process: innate immune response” value (day 7, Gene Ontology) was 3 fold, the “enrichment of downregulated biological process: response to cytokines” value (day 7, Gene Ontology) was 3 fold and the “enrichment of downregulated biological process: response to interferon-beta” value (day 7, Gene Ontology) was 15 fold. The “enrichment of upregulated biological process: Chondrocyte differentiation” value (day 7, Gene Ontology) was 6 fold, the “enrichment of upregulated biological process: Collagen fibril organisation” value (day 7, Gene Ontology) was 10 fold and the “enrichment of upregulated biological process: cartilage development” value (day 7, Gene Ontology) was 5.5 fold. The “enrichment of upregulated biological process: extracellular matrix organisation” value (day 7, Gene Ontology) was 5 fold, the “Log2 Fold Change ACAN” value (RNA-Seq, day 7) was 2.40 and the “Log2 Fold Change ADAMT S4” value (RNA-Seq, day 7) was −1.58. For the same compound, the “Log2 Fold Change AXIN2” value (RNA-Seq, day 7) was −2.38, the “Log2 Fold Change BARX2” value (RNA-Seq, day 7) was 6.42 and the “Log2 Fold Change BGLAP” value (RNA-Seq, day 7) was −1.42. For the same compound, the “Log2 Fold Change COL2A1” value (RNA-Seq, day 7) was 2.69, the “Log2 Fold Change COL9A3” value (RNA-Seq, day 7) was 4.44 and the “Log2 Fold Change COL 13A1” value (RNA-Seq, day 7) was −4.99. The “Log2 Fold Change CPA5” value (RNA-Seq, day 7) was 7.57, the “Log2 Fold Change CPM” value (RNA-Seq, day 7) was 6.76 and the “Log2 Fold Change F5” value (RNA-Seq, day 7) was 6.76. For the same compound, the “Log2 Fold Change FGFR3” value (RNA-Seq, day 7) was 1.75, the “Log2 Fold Change GALNT17” value (RNA-Seq, day 7) was 6.56 and the “Log2 Fold Change GDF5” value (RNA-Seq, day 7) was 2.39. For the same compound, the “Log2 Fold Change GREM1” value (RNA-Seq, day 7) was 1.68, the “Log2 Fold Change IBSP” value (RNA-Seq, day 7) was −6.06 and the “Log2 Fold Change IHH” value (RNA-Seq, day 7) was −2.65. For the same compound, the “Log2 Fold Change IL-6” value (RNA-Seq, day 7) was −3.23, the “Log2 Fold Change ISG15” value (RNA-Seq, day 7) was −6.47 and the “Log2 Fold Change KLK11” value (RNA-Seq, day 7) was 6.45. The “Log2 Fold Change MATN1” value (RNA-Seq, day 7) was 5.88, the “Log2 Fold Change MATN3” value (RNA-Seq, day 7) was 5.87 and the “Log2 Fold Change MEF2C” value (RNA-Seq, day 7) was −1.58. For the same compound, the “Log2 Fold Change NOG” value (RNA-Seq, day 7) was 2.08, the “Log2 Fold Change NOSTRIN” value (RNA-Seq, day 7) was −2.00 and the “Log2 Fold Change P2RY10” value (RNA-Seq, day 7) was 6.40. The “Log2 Fold Change PHLDA2” value (RNA-Seq, day 7) was 6.62, the “Log2 Fold Change SMOC3” value (RNA-Seq, day 7) was 2.71 and the “Log2 Fold Change SOX5” value (RNA-Seq, day 7) was 1.16. For the same compound, the “Log2 Fold Change SOX6” value (RNA-Seq, day 7) was 1.11, the “Log2 Fold Change SOX8” value (RNA-Seq, day 7) was 2.65 and the “Log2 Fold Change TMEM119” value (RNA-Seq, day 7) was −4.98. The “log2FoldChange GRHL3” value (RNA-Seq, day 7) was −7.66, the “log2FoldChange MX2” value (RNA-Seq, day 7) was −7.03 and the “log2FoldChange OAS1A” value (RNA-Seq, day 7) was −7.64. The “log2FoldChange OAS2” value (RNA-Seq, day 7) was −11.27, the “log2FoldChange OAS3” value (RNA-Seq, day 7) was −7.22 and the “log2FoldChange OASL1” value (RNA-Seq, day 7) was −10.46. For the same compound, the “log2FoldChange RSAD2” value (RNA-Seq, day 7) was −7.12, the “log2FoldChange SLC36A2” value (RNA-Seq, day 7) was −8.53 and the “log2FoldChange TRIM30D” value (RNA-Seq, day 7) was −7.12.
